Assay results reported in ChEMBL document CHEMBL1799919, “Design, synthesis, biological evaluation, and structure-activity relationships of substituted phenyl 4-(2-oxoimidazolidin-1-yl)benzenesulfonates as new tubulin inhibitors mimicking combretastatin A-4” (J Med Chem, 2011).

Tests used:
Format in all cases: functional, cell-based
M21 = assay: Antiproliferative activity against human M21 cells after 48 hrs by sulforhodamine B assay; details: M21, 48 h
HT-29 = assay: Antiproliferative activity against human HT-29 cells after 48 hrs by sulforhodamine B assay; details: HT-29, 48 h
MCF7 = assay: Antiproliferative activity against human MCF7 cells after 48 hrs by sulforhodamine B assay; details: MCF7, 48 h

SMILES	IC50 (HT-29) [nM]	IC50 (MCF7) [nM]	IC50 (M21) [nM]
COc1cc(OS(=O)(=O)c2ccc(N3CCCNC3=O)cc2)cc(OC)c1OC	490	730	240
O=C1NCCCN1c1ccc(S(=O)(=O)Oc2ccc(F)cc2)cc1	> 1000	> 1000	> 1000
O=C1NCCCN1c1ccc(S(=O)(=O)Oc2c(Cl)cc(Cl)cc2Cl)cc1	> 1000	> 1000	> 1000
O=C1NCCN1c1ccc(S(=O)(=O)Oc2ccccn2)cc1	480	770	290
O=C1NCCN1c1ccc(S(=O)(=O)Oc2ccncc2)cc1	> 1000	> 1000	> 1000
CN(C)c1ccc(OS(=O)(=O)c2ccc(N3CCNC3=O)cc2)cc1	430	500	350
O=C1NCCN1c1ccc(S(=O)(=O)Oc2ccccc2[N+](=O)[O-])cc1	190	270	150
O=C1NCCN1c1ccc(S(=O)(=O)Oc2ccc(I)cc2)cc1	150	210	110
O=C1NCCCN1c1ccc(S(=O)(=O)Oc2ccc(Cl)cc2)cc1	> 1000	> 1000	> 1000
Cc1ccc(OS(=O)(=O)c2ccc(N3CCCNC3=O)cc2)c(C)c1	> 1000	> 1000	> 1000
O=C1NCCN1c1ccc(S(=O)(=O)Oc2ccccc2)cc1	> 1000	> 1000	> 1000
CCc1ccc(OS(=O)(=O)c2ccc(N3CCNC3=O)cc2)cc1	150	190	120
CCCCOc1ccc(OS(=O)(=O)c2ccc(N3CCNC3=O)cc2)cc1	540	890	530

Now from value to molecule, other results behind:

IC50 (HT-29) [nM]	IC50 (MCF7) [nM]	SMILES	IC50 (M21) [nM]
> 1000	> 1000	Cc1ccccc1OS(=O)(=O)c1ccc(N2CCCNC2=O)cc1	> 1000
> 1000	> 1000	O=C1NCCCN1c1ccc(S(=O)(=O)Oc2cccc(F)c2)cc1	> 1000
> 1000	> 1000	COc1cccc(OS(=O)(=O)c2ccc(N3CCCNC3=O)cc2)c1	> 1000
670	600	Cc1cc(OS(=O)(=O)c2ccc(N3CCNC3=O)cc2)ccc1N	360
> 1000	> 1000	CCCc1ccccc1OS(=O)(=O)c1ccc(N2CCCNC2=O)cc1	> 1000
> 1000	> 1000	CC(C)(C)[Si](C)(C)Oc1ccc(OS(=O)(=O)c2ccc(N3CCNC3=O)cc2)cc1	> 1000
> 1000	> 1000	O=C1NCCN1c1ccc(S(=O)(=O)Oc2ccc(-n3ccnc3)cc2)cc1	> 1000
> 1000	> 1000	Cc1cccc(OS(=O)(=O)c2ccc(N3CCCNC3=O)cc2)c1	> 1000
720	> 1000	Cc1ccc(OS(=O)(=O)c2ccc(N3CCCNC3=O)cc2)cc1	> 1000
1000	270	Nc1cccc(OS(=O)(=O)c2ccc(N3CCNC3=O)cc2)c1	170
140	180	Cc1cc(OS(=O)(=O)c2ccc(N3CCNC3=O)cc2)ccc1[N+](=O)[O-]	100
180	220	COc1ccccc1OS(=O)(=O)c1ccc(N2CCNC2=O)cc1	130
> 1000	> 1000	Nc1ccc(OS(=O)(=O)c2ccc(N3CCNC3=O)cc2)cc1	920
> 1000	> 1000	CCc1ccccc1OS(=O)(=O)c1ccc(N2CCCNC2=O)cc1	> 1000
> 1000	> 1000	O=C1NCCN1c1ccc(S(=O)(=O)Oc2ccc(O)cc2)cc1	> 1000
780	920	CCC(C)c1ccc(OS(=O)(=O)c2ccc(N3CCNC3=O)cc2)cc1 (configuration not stated)	830
